Measured values published in BindingDB's records for patent US20230382863 (Ikena Oncology, 2023).

Biological target: Mitogen-activated protein kinase kinase kinase 1/RAF proto-oncogene serine/threonine-protein kinase (Homo sapiens, UniProt P04049+Q02750)
Test: AlphaLISA Assay
Method: 5 μL 4×MEK1 stock solution was added to wells A1-P20 by multichannel pipettes. […] 5 μL 4×CRAF stock solution at different concentrations or 5 μL or 10 μL AlphaLISA buffer was added by multichannel pipettes. The plate was sealed, centrifuged at 1000 rpm for 1 minute, and incubated at room temperature for 60 minutes. 5 μL 4×glutathione acceptor beads were first added to all wells by multichannel pipettes. The ambient light was subsequently adjusted to <100 lux (light meter) before adding 5 μL 4×nickel chelate donor beads to the same wells. From this step on, the plate was covered with a black plate cover, centrifuged at 1000 rpm for 1 minute, and incubated at room temperature for 60 minutes.

Sequence of Mitogen-activated protein kinase kinase kinase 1/RAF proto-oncogene serine/threonine-protein kinase (P04049 whole entry): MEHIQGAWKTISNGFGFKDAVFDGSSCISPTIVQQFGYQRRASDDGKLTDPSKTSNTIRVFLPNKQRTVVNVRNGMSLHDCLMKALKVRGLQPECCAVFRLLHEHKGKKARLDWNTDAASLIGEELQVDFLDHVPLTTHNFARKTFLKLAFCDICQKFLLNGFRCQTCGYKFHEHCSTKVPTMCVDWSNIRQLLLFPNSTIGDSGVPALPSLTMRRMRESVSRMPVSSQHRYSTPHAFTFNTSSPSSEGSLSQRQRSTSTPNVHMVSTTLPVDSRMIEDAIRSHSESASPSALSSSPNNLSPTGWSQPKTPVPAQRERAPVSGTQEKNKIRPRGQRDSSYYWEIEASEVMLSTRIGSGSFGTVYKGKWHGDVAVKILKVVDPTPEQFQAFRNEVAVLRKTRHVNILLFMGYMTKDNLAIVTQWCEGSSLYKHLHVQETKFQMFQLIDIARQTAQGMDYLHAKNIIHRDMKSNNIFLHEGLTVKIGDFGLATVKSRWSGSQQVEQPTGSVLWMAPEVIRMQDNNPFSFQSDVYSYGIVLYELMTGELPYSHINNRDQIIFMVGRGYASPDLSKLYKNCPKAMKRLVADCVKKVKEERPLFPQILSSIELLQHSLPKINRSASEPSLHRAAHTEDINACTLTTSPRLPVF
Sequence of Mitogen-activated protein kinase kinase kinase 1/RAF proto-oncogene serine/threonine-protein kinase (Q13233 whole entry, further chain): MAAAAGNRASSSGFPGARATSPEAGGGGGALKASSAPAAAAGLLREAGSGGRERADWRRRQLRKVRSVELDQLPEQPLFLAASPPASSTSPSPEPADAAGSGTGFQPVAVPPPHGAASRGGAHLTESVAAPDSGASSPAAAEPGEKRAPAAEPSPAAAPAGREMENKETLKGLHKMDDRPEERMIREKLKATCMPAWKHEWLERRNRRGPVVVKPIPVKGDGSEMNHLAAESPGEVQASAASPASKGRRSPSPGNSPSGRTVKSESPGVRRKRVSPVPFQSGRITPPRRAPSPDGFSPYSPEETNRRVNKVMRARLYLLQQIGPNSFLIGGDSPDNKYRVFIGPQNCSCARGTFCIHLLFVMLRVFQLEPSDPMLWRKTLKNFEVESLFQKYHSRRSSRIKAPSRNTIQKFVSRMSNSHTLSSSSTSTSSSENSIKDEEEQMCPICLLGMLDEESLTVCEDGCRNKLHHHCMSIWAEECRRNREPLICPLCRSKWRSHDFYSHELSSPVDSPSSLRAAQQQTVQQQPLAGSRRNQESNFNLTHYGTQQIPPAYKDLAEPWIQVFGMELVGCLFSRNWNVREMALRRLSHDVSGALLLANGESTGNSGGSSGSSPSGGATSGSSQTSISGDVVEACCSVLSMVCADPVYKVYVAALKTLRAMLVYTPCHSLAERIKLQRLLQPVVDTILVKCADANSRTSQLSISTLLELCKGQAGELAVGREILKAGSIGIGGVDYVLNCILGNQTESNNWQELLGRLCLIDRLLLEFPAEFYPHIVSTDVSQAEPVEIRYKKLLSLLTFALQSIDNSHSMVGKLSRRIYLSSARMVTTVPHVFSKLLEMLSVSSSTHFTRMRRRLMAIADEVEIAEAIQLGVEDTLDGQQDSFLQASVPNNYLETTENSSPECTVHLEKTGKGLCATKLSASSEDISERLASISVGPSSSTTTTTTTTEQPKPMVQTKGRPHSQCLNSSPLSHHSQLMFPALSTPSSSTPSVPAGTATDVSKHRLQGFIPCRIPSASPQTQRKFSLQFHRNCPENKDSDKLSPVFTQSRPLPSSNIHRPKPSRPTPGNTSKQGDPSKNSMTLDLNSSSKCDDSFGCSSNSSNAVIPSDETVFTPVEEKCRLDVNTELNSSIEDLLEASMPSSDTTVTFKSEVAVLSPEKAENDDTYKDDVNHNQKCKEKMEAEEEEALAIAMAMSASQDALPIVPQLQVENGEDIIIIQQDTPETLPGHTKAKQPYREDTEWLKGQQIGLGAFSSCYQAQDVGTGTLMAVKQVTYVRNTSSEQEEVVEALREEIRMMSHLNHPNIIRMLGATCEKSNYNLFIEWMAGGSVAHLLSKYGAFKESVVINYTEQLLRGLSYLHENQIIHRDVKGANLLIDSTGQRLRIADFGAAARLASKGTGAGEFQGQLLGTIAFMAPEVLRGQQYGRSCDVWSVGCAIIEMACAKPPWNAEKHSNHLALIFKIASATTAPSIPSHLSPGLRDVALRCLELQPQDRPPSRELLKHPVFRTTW

Work on `CNS(=O)(=O)Nc1cccc(Oc2c(C(=O)NC3CC3)c(Nc3ccc(I)cc3F)n(C)c(=O)c2C)c1OC` [US20230382863, Compound I-1] yielded a Kd of 0.42 nM.

Work on `CNS(=O)(=O)Nc1cccc(Oc2c(C(=O)NC3CC3)c(Nc3ccc(I)cc3F)n(C)c(=O)c2C)c1OC(F)(F)F` [US20230382863, Compound I-40] yielded a Kd of 0.47 nM.

In the case of `CNS(=O)(=O)Nc1cccc(Oc2c(C(=O)NC(C)C)c(Nc3ccc(I)cc3F)n(C)c(=O)c2C)c1Cl` [US20230382863, Compound I-41], the Kd is reported as 0.48 nM.

Compound `Cc1c(Oc2cccc(NS(=O)(=O)NC3CC3)c2Cl)c(C(=O)NC2CC2)c(Nc2ccc(I)cc2F)n(C)c1=O` [US20230382863, Compound I-42] has a Kd of 0.57 nM.

`CCNS(=O)(=O)Nc1cccc(Oc2c(C(=O)NC3CC3)c(Nc3ccc(I)cc3F)n(C)c(=O)c2C)c1Cl` [US20230382863, Compound I-43] gave a Kd of 0.51 nM.

With `CNS(=O)(=O)Nc1cccc(Oc2c(C(=O)NCC(F)(F)F)c(Nc3ccc(I)cc3F)n(C)c(=O)c2C)c1Cl` [US20230382863, Compound I-45] the Kd was 0.38 nM.

`CCNC(=O)c1c(Oc2cccc(NS(=O)(=O)NC)c2Cl)c(C)c(=O)n(C)c1Nc1ccc(I)cc1F` [US20230382863, Compound I-54] gave a Kd of 0.35 nM.

With `COCCNS(=O)(=O)Nc1cccc(Oc2c(C(=O)NC3CC3)c(Nc3ccc(I)cc3F)n(C)c(=O)c2C)c1Cl` [US20230382863, Compound I-55] the Kd was 0.51 nM.
